Reference: patent US6410564B1, “Naphthyl compounds, intermediates, processes, compositions, and methods” (Eli Lilly and Company, priority 1994, dated 2002)
Like-named read-outs stand apart in the source and are kept apart here.

Columns and labels:
[1] = tested on: ovariectomized (OVX) female Sprague Dawley rats; assay: Osteoporosis Test Procedure: distal femur metaphysis X-ray image analysis, OVX rats, 35 days; type: in vivo, rat; details: mean ± SEM
Source text: (§1) Seventy-five day old female Sprague Dawley rats (weight range of 200 to 225 g) were obtained from Charles River Laboratories (Portage, Mich.). The animals were either bilaterally ovariectomized (OVX) or exposed to a Sham surgical procedure at Charles River Laboratories, and then shipped after one week. Upon arrival, they were housed in metal hanging cages in groups of 3 or 4 per cage and had ad libitum access to food (calcium content approximately 0.5%) and water for one week. Room temperature was maintained at 22.2°±1.7° C. with a minimum relative humidity of 40%. The photoperiod in the room was 12 hours light and 12 hours dark.
Following the General Preparation Procedure, infra, the rats were treated daily for 35 days (6 rats per treatment group) and sacrificed by carbon dioxide asphyxiation on the 36th day. The 35 day time period was sufficient to allow maximal reduction in bone density, measured as described herein. At the time of sacrifice, the uteri were removed, dissected free of extraneous tissue, and the fluid contents were expelled before determination of wet weight in order to confirm estrogen deficiency associated with complete ovariectomy. […] The uteri were then placed in 10% neutral buffered formalin to allow for subsequent histological analysis.
The right femurs were excised and digitilized x-rays generated and analyzed by an image analysis program (NIH image) at the distal metaphysis. The proximal aspect of the tibiae from these animals were also scanned by quantitative computed tomography.
In accordance with the above procedures, compounds of the present invention and ethynyl estradiol (EE2) in 20% hydroxypropyl β-cyclodextrin were orally administered to test animals. Distal femur metaphysis data presented in Tables 2 and 3 below are the results of formula I compound treatments compared to intact and ovariectomized test animals. Results are reported as the mean ± the standard error of the mean.

[2] = tested on: ovariectomized (OVX) female Sprague Dawley rats; assay: Serum cholesterol in OVX rats, 4-day dosing; type: in vivo, rat; details: oral daily for 4 days; for inhibition in vivo at 0.01 mg/kg / inhibition in vivo at 0.1 mg/kg / inhibition in vivo at 1 mg/kg / inhibition in vivo at 10 mg/kg: Rattus norvegicus, po, 96 h, read-out: Serum Cholesterol (% decrease vs. OVX)
Source text: as §1
(§2) Dosing Regimen Tissue Collection. After a one week acclimation period (therefore, two weeks post-OVX) daily dosing with test compound was initiated. 17α-ethynyl estradiol or the test compound were given orally, unless otherwise stated, as a suspension in 1% carboxymethylcellulose or dissolved in 20% cyclodextrin. Animals were dosed daily for 4 days. Following the dosing regimen, animals were weighed and anesthetized with a ketamine: Xylazie (2:1, V:V) mixture and a blood sample was collected by cardiac puncture. The animals were then sacrificed by asphyxiation with CO2, the uterus was removed through a midline incision, and a wet uterine weight was determined.
Cholesterol Analysis. Blood samples were allowed to clot at room temperature for 2 hours, and serum was obtained following centrifugation for 10 minutes at 3000 rpm. Serum cholesterol was determined using a Boehringer Mannheim Diagnostics high performance cholesterol assay. Briefly the cholesterol was oxidized to cholest-4-en-3-one and hydrogen peroxide. The hydrogen peroxide was then reacted with phenol and 4-aminophenazone in the pressure of peroxidase to produce a p-quinone imine dye, which was read spectrophotemetrically at 500 nm. Cholesterol concentration was then calculated against a standard curve. The entire assay was automated using a Biomek Automated Workstation.
(§3) Data presented in Table 1 below show comparative results among ovariectomized rats, rats treated with 17α-ethynyl estradiol (EE2; an orally available form of estrogen), and rats treated with certain compounds of the present invention. […] This uterine response to estrogen is well recognized in the art.
(§4) The data presented in the Tables 1 below reflects the response of 5 to 6 rats per treatment.

[3] = tested on: ovariectomized (OVX) female Sprague Dawley rats; details: rat, in vivo, po, 4 days
Experimental: In the examples illustrating the methods, a post-menopausal model was used in which effects of different treatments upon circulating lipids were determined.
as §1, §2, §3, §4

[4] = tested on: MCF-7 breast adenocarcinoma cells; assay: MCF-7 Proliferation Assay (tritiated thymidine); type: cell-based; details: MCF-7 cells, 48 hours with drug, tritiated thymidine pulse 4 hours
Experimental: MCF-7 breast adenocarcinoma cells (ATCC HTB 22) were maintained in MEM (minimal essential medium, phenol red-free, Sigma, St. Louis, Mo.) supplimented with 10% fetal bovine serum (FBS) (V/V), L-glutamine ([…]), sodium pyruvate (1 mM), HEPES {(N-[2-hydroxyethyl]piperazine-N′-[2-ethanesulfonic acid]10 mM}, non-essential amino acids and bovine insulin (1 ug/mL) (maintenance medium). Ten days prior to assay, MCF-7 cells were switched to maintenance medium supplemented with 10% dextran coated charcoal stripped fetal bovine serum (DCC-FBS) assay medium) in place of 10% FBS to deplete internal stores of steroids. MCF-7 cells were removed from maintenance flasks using cell dissociation medium (Ca++/Mg++ free HBSS (phenol red-free) supplemented with 10 mM HEPES and 2 mM EDTA). Cells were washed twice with assay medium and adjusted to 80,000 cells/mL. Approximately 100 μL (8,000 cells) were added to flat-bottom microculture wells (Costar 3596) and incubated at 37° C. in a 5% CO2 humidified incubator for 48 hours to allow for cell adherence and equilibration after transfer. Serial dilutions of drugs or DMSO as a diluent control were prepared in assay medium and 50 μL transferred to triplicate microcultures followed by 50 μL assay medium for a final volume of 200 μL. After an additional 48 hours at 37° C. in a 5% CO2 humidified incubator, microcultures were pulsed with tritiated thymidine (1 uCi/well) for 4 hours. Cultures were terminated by freezing at −70° C. for 24 hours followed by thawing and harvesting of microcultures using a Skatron Semiautomatic Cell Harvester. Samples were counted by liquid scintillation using a Wallac BetaPlace β counter. Results in Table 4 below show the IC50 for certain compounds of the present invention.

[5] = tested on: Uterine Eosinophil Peroxidase (EPO); details: rat, in vivo, po
Source text: as §1, §2
Uterine Eosinophil Peroxidase (EPO) Assay. Uteri were kept at 4° C. until time of enzymatic analysis. The uteri were then homogenized in 50 volumes of 50 mM Tris Buffer (pH −8.0) containing 0.005% Triton X-100. Upon addition of 0.01% hydrogen peroxide and 10 mM O-phenylenediamine (final concentrations) in Tris buffer, increase in absorbance was monitored for one minute at 450 nm. The presence of eosonophils in the uterus is an indication of estrogenic activity of a compound. The maximal velocity of a 15 second interval was determined over the initial, linear portion of the reaction curve.
As is expressed in the below data, estrogenicity also was assessed by evaluating the adverse response to eosinophil infiltration into the uterus.
as §4

[6] = Table 2, oral daily 35 days in 20% cyclodextrin, 0.1 mg/kg, OVX control 5.5 ± 0.6, Sham 30.5 ± 4.3
[7] = Table 2, oral daily 35 days in 20% cyclodextrin, 1.0 mg/kg, OVX control 5.5 ± 0.6, Sham 30.5 ± 4.3
[8] = Table 2, oral daily 35 days in 20% cyclodextrin, 10.0 mg/kg, OVX control 5.5 ± 0.6, Sham 30.5 ± 4.3
[9] = Homo sapiens, MCF7, read-out: IC50
[10] = female, Sprague Dawley, 0.01 mg/kg, 4 days
[11] = female, Sprague Dawley, 0.1 mg/kg, 4 days
[12] = female, Sprague Dawley, 1 mg/kg, 4 days
[13] = female, Sprague Dawley, 10 mg/kg, 4 days

Uterine Weight (% increase vs. OVX) ([3]; 0.01 mg/kg)	Uterine Weight (% increase vs. OVX) ([3]; 0.1 mg/kg)	Uterine Weight (% increase vs. OVX) ([3]; 1 mg/kg)	Uterine Weight (% increase vs. OVX) ([3]; 10 mg/kg)	IC50 [4, 9]	Uterine EPO (V. max) [5, 10]	Uterine EPO (V. max) [5, 11]	Uterine EPO (V. max) [5, 12]	Uterine EPO (V. max) [5, 13]	SMILES	Distal Femur Metaphysis (X-ray Image Analysis-Gray Score) [1, 6]	Distal Femur Metaphysis (X-ray Image Analysis-Gray Score) [1, 7]	Distal Femur Metaphysis (X-ray Image Analysis-Gray Score) [1, 8]	inhibition in vivo at 0.01 mg/kg [2]	inhibition in vivo at 0.1 mg/kg ([2]; dose 0.1 mg/kg)	inhibition in vivo at 1 mg/kg ([2]; dose 1.0 mg/kg)	inhibition in vivo at 10 mg/kg ([2]; dose 10.0 mg/kg)	further results
2.0%	7.1%	0.0%	4.5%	0.7 nM	5.4	4.2	4.2	4.8	O=C(Oc1ccc(-c2ccc3cc(OC(=O)c4ccccc4)ccc3c2Cc2ccc(OCCN3CCCCC3)cc2)cc1)c1ccccc1 [Example 3, [2-(4-Benzoyloxyphenyl)-6-benzoyloxynaphthalen-1-yl][4-[2-(1-piperidinyl)ethoxy]phenyl]methane]	14.5 ± 3.6	31.4 ± 5.8	26.6 ± 6.3	33.3%	56.7%	63.6%	74.7%	
				1 nM					Oc1ccc(-c2ccc3cc(O)ccc3c2Cc2ccc(OCCN3CCCCCC3)cc2)cc1 [Example 27, [2-(4-Hydroxyphenyl)-6-hydroxynaphthalen-1-yl][4-[2-(1-hexamethyleneiminyl)ethoxy]phenyl]methane]								
−11.2%	23.1%	29.7%	12.2%	100 nM	4.2	7.2	4.5	3.6	COc1ccc(-c2ccc3cc(OC)ccc3c2Cc2ccc(OCCN3CCCCC3)cc2)cc1.Cl [Example 1, [2-(4-Methoxyphenyl)-6-methoxynaphthalen-1-yl][4-[2-(1-piperidinyl)ethoxy]phenyl]methane hydrochloride]	24.7 ± 4.2	21.7 ± 4.7	21.9 ± 3.2	42.9%	59.9%	75%	63.4%	
									CCN(CC)CCOc1ccc(Cc2c(-c3ccc(O)cc3)ccc3cc(O)ccc23)cc1 [Example 24, [2-(4-hydroxyphenyl)-6-hydroxynaphthalen-1-yl][4-[2-(1-N,N-diethylamino)ethoxy]phenyl]methane]								Serum Cholesterol (% decrease vs. OVX) ([2]; dose 0.1 mg/kg): 69.2%; Serum Cholesterol (% decrease vs. OVX) ([2]; dose 1.0 mg/kg): 50.0%; Serum Cholesterol (% decrease vs. OVX) ([2]; dose 10.0 mg/kg): 48.4%; IC50 [4]: Not active; Uterine EPO (V. max) ([5]; 0.1 mg/kg): 13.8; Uterine EPO (V. max) ([5]; 1 mg/kg): 55.8; Uterine EPO (V. max) ([5]; 10 mg/kg): 36.3
2.4%	24.6%	4.1%	2.6%	0.1 nM	4.5	4.5	4.8	4.2	Cl.Oc1ccc(-c2ccc3cc(O)ccc3c2Cc2ccc(OCCN3CCCCC3)cc2)cc1 [Example 2, [2-(4-Hydroxyphenyl)-6-hydroxynaphthalen-1-yl][4-[2-(1-piperidinyl)ethoxy]phenyl]methane hydrochloride]				34.2%	63%	78.1%	58.8%	Distal Femur Metaphysis (X-ray Image Analysis-Gray Score) ([1]; Table 3, oral daily 35 days in 20% cyclodextrin, 0.01 mg/kg, OVX control 7.2 ± 2.2, Sham 44.7 ± 6.4): 19.6 ± 3.3; Distal Femur Metaphysis (X-ray Image Analysis-Gray Score) ([1]; Table 3, oral daily 35 days in 20% cyclodextrin, 0.1 mg/kg, OVX control 7.2 ± 2.2, Sham 44.7 ± 6.4): 25.7 ± 5.9; Distal Femur Metaphysis (X-ray Image Analysis-Gray Score) ([1]; Table 3, oral daily 35 days in 20% cyclodextrin, 1.0 mg/kg, OVX control 7.2 ± 2.2, Sham 44.7 ± 6.4): 21.5 ± 3.2; Distal Femur Metaphysis (X-ray Image Analysis-Gray Score) ([1]; Table 3, oral daily 35 days in 20% cyclodextrin, 10.0 mg/kg, OVX control 7.2 ± 2.2, Sham 44.7 ± 6.4): 30.0 ± 4.5
